Holding throughout (assay type): biochemical
One experiment addresses T1, PI3Kδ (p110δ/p85α)(h) (Homo sapiens, UniProt O00329).
T1 construct: purchased Upstate (Millipore Co, Billerica, Mass., USA) #14˜604
The experiment can be described thus: PI3K-HTRF in vitro enzyme assay, PI3Kδ. The settings on record: enzyme 0.1 μg/ml. As for the experimental part:
(§1) The compounds of the present invention were tested for the activity of phosphatidylinositol 3-kinase delta (PI3K) by using a PI3K enzyme-homogeneous time resolved fluorescence (PI3K-HTRF) kit, which is available under Upstate™ kit (Millipore Co, Billerica, Mass., USA). This kit system measures indirectly the amount of PIP3 produced via PI3K by detecting competitive inhibition of fluorescence complex formation.
(§2) There were used three kinds of buffer solutions, i.e., reaction buffer, stop solution, and detection solution. The reaction buffer was prepared by diluting Reaction Buffer (provided in Update™ kit) with distilled water 4 times and adding DTT to a concentration of 5 mM. The stop solution was prepared by combining STOP A and B Solutions (provided in Update™ kit) in a ratio of 3:1. The detection solution was prepared by combining Detection Solution A, B and C (provided in Update™ kit) in a ratio of 1:1:18. A substrate solution and an ATP solution were prepared by diluting the 1 mM PIP2 (phosphatidyl inositol 4,5 bi-phosphate) stock solution (provided in Update™ kit) and 10 mM ATP (Sigma-aldrich Co., St. Louis, Mo., USA) stock solution with the reaction buffer to concentrations of 20 μM and 40 μM, respectively. An enzyme solution was prepared by diluting PI3Kδ (#14˜604; Upstate™ kit) with the substrate solution to the concentration of 0.2 μg/ml (final reaction concentration: 0.1 μg/ml).
(§3) The test groups were prepared by dissolving each compound in 100% DMSO at 40× the final concentration and then diluting 10-fold with the reaction buffer. 5 μl of each diluted test group solution was transferred to a 384 well low flange white flat bottom microplate (#3572, Corning Life Sciences, Lowell, Mass., USA). We performed centrifuge (1 minute, 1000 rpm) and shaking for 2 minutes after every solution-adding step in this experiment. Next, 10 μl of the enzyme solution was added to each well. A mixed solution of the substrate solution (10 μl) plus 5 μl of the 100% DMSO diluted solution without test compound (i.e., 10% DMSO solution) was used as a negative control. And also, a mixed solution of enzyme solution (10 μl) plus 5 μl of the 100% DMSO diluted solution without test compound (i.e., 10% DMSO solution) was used as a positive control. This plate was pre-incubated for 10 minutes in a 25° C. incubator. After the pre-incubation, the phosphorylation reaction was induced by adding 5 μl of the ATP solution and the plate was incubated for 30 minutes in a 25° C. incubator. This enzyme reaction was stopped by 5 μl of the stop solution and then 5 μl of the detection solution was added thereto. To obtain enough fluorescence responses, the plate was incubated for 2 hours in a 25° C. incubator protected from light.
(§4) The time-resolved fluorescence resonance energy transfer (TR-FRET) rate was measured (emission wavelength: 665 nm, 620 nm, excitation wavelength: 313 nm) by using a Flexstation3 Micro plate reader (Molecular Devices, USA). TR-FRET Rate was calculated based on the Equation 1 and using these TR-FRET Rates, % inhibition rate of each compound was calculated based on the Equation 2. The IC50 values, i.e., the concentration of a test compound that inhibits 50% of PI3Kδ activity in vitro, are generated by Softmax program (Molecular Devices, USA). TR-FRET Rate=(Signal at 665 nm emission wavelength/Signal at 620 nm emission wavelength)×10000 <Equation 1> % Inhibition Rate=[(TR-FRET Rate of the test group−TR-FRET Rate of the positive control group)/(TR-FRET Rate of the negative control group−TR-FRET Rate of the positive control group)]×100 <Equation 2>
(In TR-FRET formats the signal depends on donor and acceptor labels being close together.)

In another experiment the target is T2, PI3Kα (p110α/p85α)(h) (Homo sapiens, UniProt P42336).
T2 construct: purchased Upstate (Millipore Co) #14-602
T2 sequence (P42336 whole entry): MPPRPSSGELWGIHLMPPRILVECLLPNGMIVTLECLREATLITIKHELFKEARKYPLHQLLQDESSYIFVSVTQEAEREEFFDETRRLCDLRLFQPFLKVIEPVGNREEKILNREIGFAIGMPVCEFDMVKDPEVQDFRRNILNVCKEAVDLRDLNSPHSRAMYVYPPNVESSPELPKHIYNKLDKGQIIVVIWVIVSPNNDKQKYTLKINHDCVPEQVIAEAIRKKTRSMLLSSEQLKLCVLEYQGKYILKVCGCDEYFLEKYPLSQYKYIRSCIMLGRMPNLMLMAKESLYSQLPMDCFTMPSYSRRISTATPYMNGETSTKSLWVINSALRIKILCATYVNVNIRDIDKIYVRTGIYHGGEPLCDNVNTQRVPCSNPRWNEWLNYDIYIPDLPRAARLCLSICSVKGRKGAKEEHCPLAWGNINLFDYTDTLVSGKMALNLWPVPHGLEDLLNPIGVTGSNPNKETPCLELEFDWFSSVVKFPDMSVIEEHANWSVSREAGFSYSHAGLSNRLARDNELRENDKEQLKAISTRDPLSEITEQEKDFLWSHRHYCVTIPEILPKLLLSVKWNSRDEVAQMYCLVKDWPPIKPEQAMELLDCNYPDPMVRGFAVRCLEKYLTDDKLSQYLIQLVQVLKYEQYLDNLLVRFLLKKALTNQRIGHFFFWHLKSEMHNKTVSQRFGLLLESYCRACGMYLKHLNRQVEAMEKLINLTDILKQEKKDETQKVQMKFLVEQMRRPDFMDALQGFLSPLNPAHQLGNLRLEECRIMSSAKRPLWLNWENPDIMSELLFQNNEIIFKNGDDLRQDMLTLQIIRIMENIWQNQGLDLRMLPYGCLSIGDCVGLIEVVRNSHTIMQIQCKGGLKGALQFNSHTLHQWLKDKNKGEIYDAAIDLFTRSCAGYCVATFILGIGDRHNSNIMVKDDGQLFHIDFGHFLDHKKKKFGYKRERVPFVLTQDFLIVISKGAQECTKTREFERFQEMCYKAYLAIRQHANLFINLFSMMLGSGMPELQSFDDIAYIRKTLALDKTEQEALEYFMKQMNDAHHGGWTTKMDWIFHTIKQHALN
T2 sequence (P27986 whole entry partner): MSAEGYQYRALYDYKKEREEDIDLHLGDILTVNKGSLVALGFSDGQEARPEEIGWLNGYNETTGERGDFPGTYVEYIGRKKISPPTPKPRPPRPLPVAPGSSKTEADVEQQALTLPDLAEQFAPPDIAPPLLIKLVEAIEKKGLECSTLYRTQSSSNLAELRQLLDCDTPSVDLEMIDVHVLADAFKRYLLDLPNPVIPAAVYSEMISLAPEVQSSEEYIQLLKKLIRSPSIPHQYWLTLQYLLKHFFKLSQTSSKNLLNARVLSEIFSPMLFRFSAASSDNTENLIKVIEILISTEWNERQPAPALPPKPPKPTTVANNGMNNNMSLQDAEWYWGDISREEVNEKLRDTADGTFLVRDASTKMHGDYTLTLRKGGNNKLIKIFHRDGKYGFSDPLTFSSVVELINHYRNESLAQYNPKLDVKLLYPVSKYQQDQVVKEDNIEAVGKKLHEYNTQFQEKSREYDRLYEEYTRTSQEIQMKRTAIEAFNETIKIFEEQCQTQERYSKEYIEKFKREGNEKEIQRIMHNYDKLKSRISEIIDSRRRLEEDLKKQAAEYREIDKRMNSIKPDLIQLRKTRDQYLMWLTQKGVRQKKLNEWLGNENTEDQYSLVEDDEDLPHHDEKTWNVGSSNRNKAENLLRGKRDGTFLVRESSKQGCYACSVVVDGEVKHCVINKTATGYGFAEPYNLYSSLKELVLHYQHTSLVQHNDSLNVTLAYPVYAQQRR
The experiment is described as follows: PI3K-HTRF in vitro enzyme assay, PI3Kα. The settings on record: enzyme 0.1 μg/ml. As for the experimental part:
as §1, §2, §3, §4
(§5) The compounds of the present invention were assayed for the activities of PI3K subtypes, i.e., PI3Kα, PI3Kβ and PI3Kγ, using the same procedures as in Experimental Example 1. […]

A further experiment concerns the target T3, PI3Kβ (p110β/p85α)(h) (Homo sapiens, UniProt P42338).
T3 construct: purchased Upstate (Millipore Co) #14-603
The experiment is described as follows: PI3K-HTRF in vitro enzyme assay, PI3Kβ. Particulars: enzyme 0.4 μg/ml. As for the experimental part:
as §1, §2, §3, §4, §5

The target of a further experiment is T4, PI3Kγ (p120γ)(h) (Homo sapiens, UniProt P48736).
T4 construct: purchased Upstate (Millipore Co) #14-558
T4 sequence (P48736 whole entry): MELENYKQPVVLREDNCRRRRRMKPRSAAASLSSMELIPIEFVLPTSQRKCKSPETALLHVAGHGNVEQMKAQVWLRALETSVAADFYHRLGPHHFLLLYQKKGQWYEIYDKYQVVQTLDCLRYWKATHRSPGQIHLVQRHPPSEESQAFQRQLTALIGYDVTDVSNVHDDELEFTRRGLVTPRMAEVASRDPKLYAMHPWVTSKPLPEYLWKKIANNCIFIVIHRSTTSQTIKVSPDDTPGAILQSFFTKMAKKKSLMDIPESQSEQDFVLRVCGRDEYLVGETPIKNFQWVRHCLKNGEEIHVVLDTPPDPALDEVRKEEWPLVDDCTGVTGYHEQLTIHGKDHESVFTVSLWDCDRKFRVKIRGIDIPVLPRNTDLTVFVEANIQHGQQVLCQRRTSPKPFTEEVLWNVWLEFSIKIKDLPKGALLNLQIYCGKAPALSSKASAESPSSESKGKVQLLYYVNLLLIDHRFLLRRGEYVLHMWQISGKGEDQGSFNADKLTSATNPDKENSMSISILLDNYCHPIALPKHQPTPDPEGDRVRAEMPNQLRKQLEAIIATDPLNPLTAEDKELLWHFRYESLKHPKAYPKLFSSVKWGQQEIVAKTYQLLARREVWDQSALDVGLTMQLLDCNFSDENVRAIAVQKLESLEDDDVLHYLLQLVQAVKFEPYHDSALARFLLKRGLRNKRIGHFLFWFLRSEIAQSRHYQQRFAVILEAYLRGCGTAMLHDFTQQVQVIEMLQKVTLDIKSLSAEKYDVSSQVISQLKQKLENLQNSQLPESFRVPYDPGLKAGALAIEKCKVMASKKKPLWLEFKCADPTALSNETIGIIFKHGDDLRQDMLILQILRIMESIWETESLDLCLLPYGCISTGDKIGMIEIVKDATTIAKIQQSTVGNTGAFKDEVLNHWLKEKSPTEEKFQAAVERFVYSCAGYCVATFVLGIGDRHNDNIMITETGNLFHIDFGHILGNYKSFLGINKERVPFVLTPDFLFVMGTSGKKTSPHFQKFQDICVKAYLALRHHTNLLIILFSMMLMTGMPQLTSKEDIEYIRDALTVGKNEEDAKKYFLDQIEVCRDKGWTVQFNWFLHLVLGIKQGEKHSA
The experiment can be described thus: PI3K-HTRF in vitro enzyme assay, PI3Kγ. Particulars: enzyme 0.4 μg/ml. As for the experimental part: as §1, §2, §3, §4, §5

Broadly, the IC50 is the concentration needed to halve the response being measured. Read a high IC50 as a need for much substance.

T1 sequence (O00329 whole entry): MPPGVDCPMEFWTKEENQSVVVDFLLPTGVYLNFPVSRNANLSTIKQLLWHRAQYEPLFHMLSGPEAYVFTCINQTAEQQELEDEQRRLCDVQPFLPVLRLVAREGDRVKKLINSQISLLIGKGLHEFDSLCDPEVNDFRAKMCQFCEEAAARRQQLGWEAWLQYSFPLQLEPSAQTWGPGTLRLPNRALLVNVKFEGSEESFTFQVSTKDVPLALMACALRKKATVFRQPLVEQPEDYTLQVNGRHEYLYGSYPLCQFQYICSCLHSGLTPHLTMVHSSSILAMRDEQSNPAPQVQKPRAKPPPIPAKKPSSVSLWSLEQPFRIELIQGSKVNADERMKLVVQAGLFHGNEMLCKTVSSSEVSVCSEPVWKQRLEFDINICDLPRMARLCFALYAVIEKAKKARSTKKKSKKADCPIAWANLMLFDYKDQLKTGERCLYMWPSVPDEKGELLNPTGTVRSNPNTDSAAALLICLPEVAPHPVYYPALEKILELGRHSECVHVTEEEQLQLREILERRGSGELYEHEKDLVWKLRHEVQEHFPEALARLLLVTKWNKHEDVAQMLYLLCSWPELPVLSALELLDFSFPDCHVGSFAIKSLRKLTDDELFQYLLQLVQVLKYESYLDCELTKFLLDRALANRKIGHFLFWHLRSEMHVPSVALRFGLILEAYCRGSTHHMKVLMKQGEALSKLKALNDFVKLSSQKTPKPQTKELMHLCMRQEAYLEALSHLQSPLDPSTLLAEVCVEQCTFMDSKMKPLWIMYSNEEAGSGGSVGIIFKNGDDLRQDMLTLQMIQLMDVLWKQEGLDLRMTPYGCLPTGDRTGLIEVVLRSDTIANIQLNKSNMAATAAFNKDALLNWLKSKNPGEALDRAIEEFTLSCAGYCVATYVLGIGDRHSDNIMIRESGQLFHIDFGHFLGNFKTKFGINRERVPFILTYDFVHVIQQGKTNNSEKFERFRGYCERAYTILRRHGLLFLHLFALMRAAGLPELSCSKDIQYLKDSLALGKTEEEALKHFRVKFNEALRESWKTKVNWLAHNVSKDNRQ
T1 sequence (P27986 whole entry partner): as the sequence (P27986 whole entry partner) above
T3 sequence (P42338 whole entry): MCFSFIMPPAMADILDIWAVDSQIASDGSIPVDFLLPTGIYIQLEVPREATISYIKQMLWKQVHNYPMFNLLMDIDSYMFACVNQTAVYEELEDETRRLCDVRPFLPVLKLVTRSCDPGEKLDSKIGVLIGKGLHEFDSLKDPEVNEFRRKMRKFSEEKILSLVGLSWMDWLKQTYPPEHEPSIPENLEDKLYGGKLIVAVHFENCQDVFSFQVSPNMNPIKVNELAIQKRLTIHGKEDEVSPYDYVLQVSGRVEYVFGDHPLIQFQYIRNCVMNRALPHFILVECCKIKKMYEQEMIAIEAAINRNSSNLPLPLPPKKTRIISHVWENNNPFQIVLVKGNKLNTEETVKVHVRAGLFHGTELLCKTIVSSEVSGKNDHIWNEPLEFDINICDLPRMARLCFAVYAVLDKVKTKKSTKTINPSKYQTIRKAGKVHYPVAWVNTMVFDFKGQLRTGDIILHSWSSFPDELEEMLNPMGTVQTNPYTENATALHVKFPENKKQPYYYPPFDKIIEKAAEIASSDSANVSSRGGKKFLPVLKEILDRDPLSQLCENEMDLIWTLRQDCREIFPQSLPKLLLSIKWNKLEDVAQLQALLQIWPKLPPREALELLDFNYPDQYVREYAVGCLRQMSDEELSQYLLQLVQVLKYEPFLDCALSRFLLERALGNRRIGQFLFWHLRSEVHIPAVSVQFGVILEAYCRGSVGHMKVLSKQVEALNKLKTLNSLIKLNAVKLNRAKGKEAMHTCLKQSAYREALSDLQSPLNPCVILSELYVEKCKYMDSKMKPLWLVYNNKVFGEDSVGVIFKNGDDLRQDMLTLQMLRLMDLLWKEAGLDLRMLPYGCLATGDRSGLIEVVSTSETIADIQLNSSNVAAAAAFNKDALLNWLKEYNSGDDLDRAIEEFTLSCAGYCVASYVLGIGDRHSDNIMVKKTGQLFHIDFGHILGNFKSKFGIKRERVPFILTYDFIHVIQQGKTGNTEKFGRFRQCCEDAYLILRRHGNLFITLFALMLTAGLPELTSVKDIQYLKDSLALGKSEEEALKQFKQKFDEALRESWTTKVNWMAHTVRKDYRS
T3 sequence (P27986 whole entry partner): as the sequence (P27986 whole entry partner) above

Turning to `CC[C@H](Nc1ncnc2ccc(C#N)cc12)c1nc2cccc(-c3cncnc3)c2c(=O)n1C1CC1` [Example 20, (S)-4-((1-(3-cyclopropyl-4-oxo-5-(pyrimidin-5-yl)-3,4-dihydroquinazolin-2-yl)propyl)amino)quinazoline-6-carbonitrile], the IC50 against PI3Kδ (p110δ/p85α)(h) was 15 nM; at PI3Kα (p110α/p85α)(h) it was 2440 nM; at PI3Kβ (p110β/p85α)(h), 8950 nM; at PI3Kγ (p120γ)(h), 819 nM.
In the same order, the values of `CC[C@H](Nc1ncnc2ccc(C#N)cc12)c1nc2cccc(-c3cnc(N)nc3)c2c(=O)n1C1CC1` [Example 21, (S)-4-((1-(5-(2-aminopyrimidin-5-yl)-3-cyclopropyl-4-oxo-3,4-dihydroquinazolin-2-yl)propyl)amino)quinazoline-6-carbonitrile] are 13 nM, 650 nM, 3730 nM and 371 nM.
On to `CC[C@H](Nc1ncnc2cccc(F)c12)c1nc2cccc(-c3cnc(N)nc3)c2c(=O)n1-c1ccccc1` [Example 25, (S)-5-(2-aminopyrimidin-5-yl)-2-(1-((5-fluoroquinazolin-4-yl)amino)propyl)-3-phenylquinazolin-4(3H)-one], for which the IC50 at PI3Kδ (p110δ/p85α)(h) worked out at 10 nM; at PI3Kα (p110α/p85α)(h) it was 1460 nM; against PI3Kβ (p110β/p85α)(h) it was 9590 nM; against PI3Kγ (p120γ)(h), 1230 nM.
Turning to `Nc1ncc(-c2cccc3nc([C@@H](Nc4ncnc5cccc(F)c45)C4CC4)n(-c4ccccc4)c(=O)c23)cn1` [Example 31, (S)-5-(2-aminopyrimidin-5-yl)-2-(cyclopropyl((5-fluoroquinazolin-4-yl)amino)methyl)-3-phenylquinazolin-4(3H)-one], the IC50 against PI3Kδ (p110δ/p85α)(h) was determined as 3 nM; against PI3Kα (p110α/p85α)(h) it was 652 nM; on PI3Kβ (p110β/p85α)(h), 9310 nM; on PI3Kγ (p120γ)(h) it was 442 nM.
For `C[C@H](Nc1ncnc2ccc(C#N)cc12)c1cc2cccc(-c3cncnc3)c2c(=O)n1-c1ccccc1` [Example 32, (S)-4-((1-(1-oxo-2-phenyl-8-(pyrimidin-5-yl)-1,2-dihydroisoquinolin-3-yl)ethyl)amino)quinazoline-6-carbonitrile], in that order: 2 nM, 1730 nM, 4800 nM and 416 nM.
For `COc1ncc(-c2cccc3cc([C@H](C)Nc4ncnc5ccc(C#N)cc45)n(-c4ccccc4)c(=O)c23)cn1` [Example 33, (S)-4-((1-(8-(2-methoxypyrimidin-5-yl)-1-oxo-2-phenyl-1,2-dihydroisoquinolin-3-yl)ethyl)amino)quinazoline-6-carbonitrile], in that order: 10 nM, 1240 nM, 6690 nM and 155 nM.
Turning to `CCOc1ncc(-c2cccc3cc([C@H](C)Nc4ncnc5ccc(C#N)cc45)n(-c4ccccc4)c(=O)c23)cn1` [Example 34, (S)-4-((1-(8-(2-ethoxypyrimidin-5-yl)-1-oxo-2-phenyl-1,2-dihydroisoquinolin-3-yl)ethyl)amino)quinazoline-6-carbonitrile], the IC50 against PI3Kδ (p110δ/p85α)(h) was 17 nM; at PI3Kα (p110α/p85α)(h) it was 1350 nM; at PI3Kβ (p110β/p85α)(h) it was 7390 nM; on PI3Kγ (p120γ)(h), 324 nM.
In the same order, the values of `C[C@H](Nc1ncnc2ccc(C#N)cc12)c1cc2cccc(-c3cnc(N(C)C)nc3)c2c(=O)n1-c1ccccc1` [Example 35, (S)-4-((1-(8-(2-(dimethylamino)pyrimidin-5-yl)-1-oxo-2-phenyl-1,2-dihydroisoquinolin-3-yl)ethyl)amino)quinazoline-6-carbonitrile] are 25 nM, 673 nM, 5310 nM and 93 nM.
On to `C[C@H](Nc1ncnc2ccc(C#N)cc12)c1cc2cccc(-c3cnc(C4CC4)nc3)c2c(=O)n1-c1ccccc1` [Example 37, (S)-4-((1-(8-(2-cyclopropylpyrimidin-5-yl)-1-oxo-2-phenyl-1,2-dihydroisoquinolin-3-yl)ethyl)amino)quinazoline-6-carbonitrile], for which the IC50 came out at 10 nM against PI3Kδ (p110δ/p85α)(h), 418 nM on PI3Kα (p110α/p85α)(h), 8760 nM against PI3Kβ (p110β/p85α)(h) and 67 nM against PI3Kγ (p120γ)(h).
Regarding `Cc1ncc(-c2cccc3cc([C@H](C)Nc4ncnc5ccc(C#N)cc45)n(-c4ccc(F)cc4)c(=O)c23)cn1` [Example 38, (S)-4-((1-(2-(4-fluorophenyl)-8-(2-methylpyrimidin-5-yl)-1-oxo-1,2-dihydroisoquinolin-3-yl)ethyl)amino)quinazoline-6-carbonitrile], the IC50 against PI3Kδ (p110δ/p85α)(h) worked out at 26 nM; at PI3Kα (p110α/p85α)(h), 635 nM; on PI3Kβ (p110β/p85α)(h) it was 9820 nM; at PI3Kγ (p120γ)(h), 67 nM.
In the same order, the values of `CCOc1ncc(-c2cccc3cc([C@H](CC)Nc4ncnc5ccc(C#N)cc45)n(-c4ccccc4)c(=O)c23)cn1` [Example 41, (S)-4-((1-(8-(2-ethoxypyrimidin-5-yl)-1-oxo-2-phenyl-1,2-dihydroisoquinolin-3-yl)propyl)amino)quinazoline-6-carbonitrile] are 2 nM, 909 nM, 9380 nM and 489 nM.
In the same order, the values of `C[C@H](Nc1ncnc2cccc(F)c12)c1cc2cccc(-c3cnc(N)nc3)c2c(=O)n1-c1ccccc1` [Example 43, (S)-8-(2-aminopyrimidin-5-yl)-3-(1-((5-fluoroquinazolin-4-yl)amino)ethyl)-2-phenylisoquinolin-1(2H)-one] are 13 nM, 2670 nM, 8860 nM and 283 nM.
For `CC(C)[C@H](Nc1ncnc2cccc(F)c12)c1cc2cccc(-c3cnc(N)nc3)c2c(=O)n1-c1ccccc1` [Example 46, (S)-8-(2-aminopyrimidin-5-yl)-3-(1-((5-fluoroquinazolin-4-yl)amino)-2-methylpropyl)-2-phenylisoquinolin-1(2H)-one], in that order: 12 nM, 2950 nM, 7950 nM and 1580 nM.

The record behind these values is patent US10941136B2, “Quinazoline derivative or its salt and pharmaceutical composition comprising the same” (YUHAN CORPORATION, priority 2016, dated 2021).
